# Values quoted from earlier work, collected in US10123974B2, “Sustained release formulation of a non-steroidal anti-inflammatory drug” (PACIRA PHARMACEUTICALS, INC., priority 2010, dated 2018).
# Conditions: chronic 100 mg/day systemic dosing
smiles,measurement,value
O=C(O)Cc1ccccc1Nc1c(Cl)cccc1Cl [diclofenac],synovial fluid levels,≤ 200 ng/mL
